Biological target: crotoxin complex (1:1 complex of crotoxin A and crotoxin B) from Crotalus durissus terrificus venom (Crotalus durissus terrificus, UniProt P0CAS2)
Assay type: biochemical

crotoxin complex (1:1 complex of crotoxin A and crotoxin B) from Crotalus durissus terrificus venom, sequence (P0CAS2 whole entry, looked up, one chain of several): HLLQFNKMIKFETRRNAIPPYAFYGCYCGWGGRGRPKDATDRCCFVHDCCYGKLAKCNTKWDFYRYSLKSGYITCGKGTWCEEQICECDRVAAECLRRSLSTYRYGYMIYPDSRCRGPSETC

O=C(CBr)c1ccc(Br)cc1 [p-bromophenacylbromide]
reaction with p-bromophenacyl bromide: does not react

Source: patent publication US5164196A (priority 1990, dated 1992)
